Assay results from patent publication US6479435B1, “Diaryl ethers and processes for their preparation and herbicidal and desiccant compositions containing them” (ISK Americas Incorporated, priority 1997, dated 2002).

Experiments:
Format in all cases: in vivo
[1] = system: Johnsongrass (Sorghum halepense, SORHA); assay: Pre-emerge greenhouse herbicide test, phytotoxicity rating; settings: 14 days after application, rating scale 0-100
Outline: (§1)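 Seeds sown in sandy loam mix one day before track-sprayer application of compounds in acetone at 125–1000 g ai/ha (187 l/ha), then surface-watered to incorporate and bottom-watered. Visual rating 14 days after application on a 0–100 scale (0 = no damage, 100 = all plants dead).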

[2] = system: barnyardgrass (Echinochloa crusgalli, ECHCG); assay: as above; settings: 14 days after application, rating scale 0-100
Outline: as §1

[3] = system: common ragweed (Ambrosia artemisiifolia L., AMBEL); assay: as above; settings: 14 days after application, rating scale 0-100
Outline: as §1

[4] = system: green foxtail (Setaria viridis, SETVI); assay: as above; settings: 14 days after application, rating scale 0-100
Outline: as §1

[5] = system: ivyleaf morningglory (Ipomoea hederacea, IPOHE); assay: as above; settings: 14 days after application, rating scale 0-100
Outline: as §1

[6] = system: lambsquarters (Chenopodium album, CHEAL); assay: as above; settings: 14 days after application, rating scale 0-100
Outline: as §1

[7] = system: large crabgrass (Digitaria sanguinalis, DIGSA); assay: as above; settings: 14 days after application, rating scale 0-100
Outline: as §1

[8] = system: redroot pigweed (Amaranthus retroflexus, AMARE); assay: as above; settings: 14 days after application, rating scale 0-100
Outline: as §1

[9] = system: sicklepod (Cassia obtusifolia, CASOB); assay: as above; settings: 14 days after application, rating scale 0-100
Outline: as §1

[10] = system: velvetleaf (Abutilon theophrasti, ABUTH); assay: as above; settings: 14 days after application, rating scale 0-100
Outline: as §1

[11] = system: field corn (Zea mays L., var. Dekalb 535, CORN); assay: Pre-emerge greenhouse test, crop damage rating; settings: 14 days after application, rating scale 0-100
Outline: as §1

[12] = system: upland rice (Oryza sp., var.Tebonnet, RICE); assay: Pre-emerge greenhouse test, crop damage rating; settings: 14 days after application, rating scale 0-100
Outline: as §1

[13] = system: soybean (Glycine max L., var. Pella 86, SOY); assay: Pre-emerge greenhouse test, crop damage rating; parameters: key to SOY crop damage rating: 0 = no damage, 100 = complete death of all plants; settings: 14 days after application, rating scale 0-100
Outline: as §1

[14] = system: common ragweed (Ambrosia artemisiifolia L., AMBEL); assay: Post-emerge greenhouse herbicide test, phytotoxicity rating; settings: 14 days after application, scale 0-100
Outline: (§2)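 Compounds in acetone with 0.25% v/v non-ionic surfactant were track-sprayed at 187 l/ha over plants at the 2-3 leaf stage, at 63 to 1000 g ai/ha. Pots were bottom-watered. Injury was scored visually 14 days later on a 0-100 scale, where 0 is no damage and 100 is complete plant death.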

[15] = system: Johnsongrass (Sorghum halepense, SORHA); assay: as above; settings: 14 days after application, scale 0-100
Outline: as §2

[16] = system: barnyardgrass (Echinochloa crusgalli, ECHCG); assay: as above; settings: 14 days after application, scale 0-100
Outline: as §2

[17] = system: green foxtail (Setaria viridis, SETVI); assay: as above; settings: 14 days after application, scale 0-100
Outline: as §2

[18] = system: ivyleaf morningglory (Ipomoea hederacea, IPOHE); assay: as above; settings: 14 days after application, scale 0-100
Outline: as §2

[19] = system: lambsquarters (Chenopodium album, CHEAL); assay: as above; settings: 14 days after application, scale 0-100
Outline: as §2

[20] = system: large crabgrass (Digitaria sanguinalis, DIGSA); assay: as above; settings: 14 days after application, scale 0-100
Outline: as §2

[21] = system: redroot pigweed (Amaranthus retroflexus, AMARE); assay: as above; settings: 14 days after application, scale 0-100
Outline: as §2

[22] = system: sicklepod (Cassia obtusifolia, CASOB); assay: as above; settings: 14 days after application, scale 0-100
Outline: as §2

[23] = system: velvetleaf (Abutilon theophrasti, ABUTH); assay: as above; settings: 14 days after application, scale 0-100
Outline: as §2

[24] = system: field corn (Zea mays L., var. Dekalb 535, CORN); assay: Post-emerge greenhouse test, crop damage rating; settings: 14 days after application, scale 0-100
Outline: as §2

[25] = system: upland rice (Oryza sp., var.Tebonnet, RICE); assay: Post-emerge greenhouse test, crop damage rating; settings: 14 days after application, scale 0-100
Outline: as §2

[26] = system: soybean (Glycine max L., var. Pella 86, SOY); assay: Post-emerge greenhouse test, crop damage rating; parameters: key to crop damage rating SOY: 0-100 scale: 0 = no damage, 100 = complete death of all plants; settings: 14 days after application, scale 0-100
Outline: as §2

`O=c1n(-c2cc(Oc3ccc([N+](=O)[O-])cn3)c(Cl)cc2F)c(=S)n2n1CCCC2` [Compound 8-23] was tested, and the SORHA phytotoxicity rating ([1]; Rate 125 g al/ha) was 0, the SORHA phytotoxicity rating ([1]; Rate 500 g al/ha) was 30 and the ECHCG phytotoxicity rating ([2]; Rate 125 g al/ha) was 0. It also gave an ECHCG phytotoxicity rating ([2]; Rate 500 g al/ha) of 10, an AMBEL phytotoxicity rating ([3]; Rate 125 g al/ha) of 0 and an AMBEL phytotoxicity rating ([3]; Rate 500 g al/ha) of 60. It also gave an SETVI phytotoxicity rating ([4]; Rate 125 g al/ha) of 10, an SETVI phytotoxicity rating ([4]; Rate 500 g al/ha) of 100 and an IPOHE phytotoxicity rating ([5]; Rate 125 g al/ha) of 30. It also gave an IPOHE phytotoxicity rating ([5]; Rate 500 g al/ha) of 60, a CHEAL phytotoxicity rating ([6]; Rate 125 g al/ha) of 100 and a CHEAL phytotoxicity rating ([6]; Rate 500 g al/ha) of 100. For the same molecule, the DIGSA phytotoxicity rating ([7]; Rate 125 g al/ha) was 0, the DIGSA phytotoxicity rating ([7]; Rate 500 g al/ha) was 50 and the AMARE phytotoxicity rating ([8]; Rate 125 g al/ha) was 90. The AMARE phytotoxicity rating ([8]; Rate 500 g al/ha) was 100, the CASOB phytotoxicity rating ([9]; Rate 125 g al/ha) was 0 and the CASOB phytotoxicity rating ([9]; Rate 500 g al/ha) was 50. The ABUTH phytotoxicity rating ([10]; Rate 125 g al/ha) was 95, the ABUTH phytotoxicity rating ([10]; Rate 500 g al/ha) was 100 and the “CORN crop damage rating” value ([11]; Rate 125 g al/ha) was 0. For the same molecule, the “CORN crop damage rating” value ([11]; Rate 500 g al/ha) was 0, the “RICE crop damage rating” value ([12]; Rate 125 g al/ha) was 0 and the “RICE crop damage rating” value ([12]; Rate 500 g al/ha) was 0. For the same molecule, the “SOY crop damage rating” value ([13]; Rate 125 g al/ha) was 0, the “SOY crop damage rating” value ([13]; Rate 500 g al/ha) was 20 and the “phytotoxicity rating AMBEL” value ([14]; rate 63 g ai/ha) was 50. For the same molecule, the “phytotoxicity rating AMBEL” value ([14]; rate 500 g ai/ha) was 100, the “phytotoxicity rating SORHA” value ([15]; rate 63 g ai/ha) was 0 and the “phytotoxicity rating SORHA” value ([15]; rate 500 g ai/ha) was 20. For the same molecule, the “phytotoxicity rating ECHCG” value ([16]; rate 63 g ai/ha) was 0, the “phytotoxicity rating ECHCG” value ([16]; rate 500 g ai/ha) was 0 and the “phytotoxicity rating SETVI” value ([17]; rate 63 g ai/ha) was 0. The “phytotoxicity rating SETVI” value ([17]; rate 500 g ai/ha) was 20, the “phytotoxicity rating IPOHE” value ([18]; rate 63 g ai/ha) was 50 and the “phytotoxicity rating IPOHE” value ([18]; rate 500 g ai/ha) was 100. For the same molecule, the “phytotoxicity rating CHEAL” value ([19]; rate 63 g ai/ha) was 95, the “phytotoxicity rating CHEAL” value ([19]; rate 500 g ai/ha) was 99 and the “phytotoxicity rating DIGSA” value ([20]; rate 63 g ai/ha) was 0. The “phytotoxicity rating DIGSA” value ([20]; rate 500 g ai/ha) was 0, the “phytotoxicity rating AMARE” value ([21]; rate 63 g ai/ha) was 95 and the “phytotoxicity rating AMARE” value ([21]; rate 500 g ai/ha) was 99. For the same molecule, the “phytotoxicity rating CASOB” value ([22]; rate 63 g ai/ha) was 70, the “phytotoxicity rating CASOB” value ([22]; rate 500 g ai/ha) was 100 and the “phytotoxicity rating ABUTH” value ([23]; rate 63 g ai/ha) was 100. The “phytotoxicity rating ABUTH” value ([23]; rate 500 g ai/ha) was 100, the “crop damage rating CORN” value ([24]; rate 63 g ai/ha) was 0 and the “crop damage rating CORN” value ([24]; rate 500 g ai/ha) was 5. The “crop damage rating RICE” value ([25]; rate 63 g ai/ha) was 0, the “crop damage rating RICE” value ([25]; rate 500 g ai/ha) was 0 and the “crop damage rating SOY” value ([26]; rate 63 g ai/ha) was 25. For the same molecule, the “crop damage rating SOY” value ([26]; rate 500 g ai/ha) was 60.
